Test system: yeast genes (level of expressed mRNA)
Test: DNA chip analysis of expressed mRNA of yeast genes after 2 h culture with a toxic chemical substance
Type: cell-based, Saccharomyces cerevisiae S288C
Summary of the method: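 S. cerevisiae S288C grown at 25° C in YPD; toxicant added at log phase at growth-inhibitory, non-lethal levels for 2 h, untreated cells as control. Poly(A) mRNA reverse-transcribed with Cy3/Cy5-dUTP, hybridized to whole-genome chip at 65° C >12 h; value is fluorescence ratio versus untreated.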

## manganese ethylenebis(dithiocarbamate) [(8)]
Yeast gene YFL010C, ratio to control without chemical substance, 2 h culture
  The level of expressed mRNA in the presence of chemical substance/: 1.0
Yeast gene YFL024C, ratio to control without chemical substance, 2 h culture
  The level of expressed mRNA in the presence of chemical substance/: 0.9
Yeast gene YFL028C
  The level of expressed mRNA in the presence of chemical substance/The level of expressed mRNA in the absence of chemical substance: 1.5
Yeast gene YFL032W, ratio to control without chemical substance, 2 h culture
  The level of expressed mRNA in the presence of chemical substance/: 0.4
Yeast gene YFL043C
  The level of expressed mRNA in the presence of chemical substance/The level of expressed mRNA in the absence of chemical substance: 1.0
Yeast gene YGL035C
  The level of expressed mRNA in the presence of chemical substance/in the absence of chemical substance: 1.3
Yeast gene YGL037C, ratio to control without chemical substance, 2 h culture
  The level of expressed mRNA in the presence of chemical substance/: 1.2
Yeast gene YGL047W, ratio to control without chemical substance, 2 h culture
  The level of expressed mRNA in the presence of chemical substance/: 1.1
Yeast gene YGL053W, ratio to control without chemical substance, 2 h culture
  The level of expressed mRNA in the presence of chemical substance/: 1.2
Yeast gene YGL121C, ratio to control without chemical substance, 2 h culture
  The level of expressed mRNA in the presence of chemical substance/: 3.0
Yeast gene YGL158W
  The level of expressed mRNA in the presence of chemical substance/The level of expressed mRNA in the absence of chemical substance: 1.3
Yeast gene YGL199C, ratio to control without chemical substance, 2 h culture
  The level of expressed mRNA in the presence of chemical substance/: 0.7
Yeast gene YGL229C
  The level of expressed mRNA in the presence of chemical substance/The level of expressed mRNA in the absence of chemical substance: 0.7
Yeast gene YGR101W, ratio to control without chemical substance, 2 h culture
  The level of expressed mRNA in the presence of chemical substance/: 0.8
Yeast gene YGR110W, ratio to control without chemical substance, 2 h culture
  The level of expressed mRNA in the presence of chemical substance/: 1.5
Yeast gene YGR130C, ratio to control without chemical substance, 2 h culture
  The level of expressed mRNA in the presence of chemical substance/: 0.9
Yeast gene YGR136W
  The level of expressed mRNA in the presence of chemical substance/The level of expressed mRNA in the absence of chemical substance: 1.3
Yeast gene YGR154C, ratio to control without chemical substance, 2 h culture
  The level of expressed mRNA in the presence of chemical substance/: 1.7
Yeast gene YGR189C
  The level of expressed mRNA in the presence of chemical substance/The level of expressed mRNA in the absence of chemical substance: 1.0
Yeast gene YGR213C
  The level of expressed mRNA in the presence of chemical substance/The level of expressed mRNA in the absence of chemical substance: 2.0
Yeast gene YGR221C, ratio to control without chemical substance, 2 h culture
  The level of expressed mRNA in the presence of chemical substance/: 1.1
Yeast gene YGR257C
  The level of expressed mRNA in the presence of chemical substance/The level of expressed mRNA in the absence of chemical substance: 1.0
Yeast gene YGR287C
  The level of expressed mRNA in the presence of chemical substance/in the absence of chemical substance: 1.3
Yeast gene YHR004C
  The level of expressed mRNA in the presence of chemical substance/The level of expressed mRNA in the absence of chemical substance: 0.9
Yeast gene YHR071W
  The level of expressed mRNA in the presence of chemical substance/The level of expressed mRNA in the absence of chemical substance: 1.7
Yeast gene YHR138C, ratio to control without chemical substance, 2 h culture
  The level of expressed mRNA in the presence of chemical substance/: 1.4
Yeast gene YHR139C
  The level of expressed mRNA in the presence of chemical substance/The level of expressed mRNA in the absence of chemical substance: 1.3
Yeast gene YHR142W
  The level of expressed mRNA in the presence of chemical substance/The level of expressed mRNA in the absence of chemical substance: 1.3
Yeast gene YHR199C, ratio to control without chemical substance, 2 h culture
  The level of expressed mRNA in the presence of chemical substance/: 1.0
Yeast gene YIL023C, ratio to control without chemical
  The level of expressed mRNA in the presence of chemical substance/: 0.7
Yeast gene YIL041W, ratio to control without chemical substance, 2 h culture
  The level of expressed mRNA in the presence of chemical substance/: 0.9
Yeast gene YIL087C, ratio to control without chemical substance, 2 h culture
  The level of expressed mRNA in the presence of chemical substance/: 1.1
Yeast gene YIL123W
  The level of expressed mRNA in the presence of chemical substance/The level of expressed mRNA in the absence of chemical substance: 0.6
Yeast gene YIL140W
  The level of expressed mRNA in the presence of chemical substance/The level of expressed mRNA in the absence of chemical substance: 0.7
Yeast gene YJL057C, ratio to control without chemical substance, 2 h culture
  The level of expressed mRNA in the presence of chemical substance/: 1.5
Yeast gene YJL066C, ratio to control without chemical substance, 2 h culture
  The level of expressed mRNA in the presence of chemical substance/: 0.8
Yeast gene YJL070C
  The level of expressed mRNA in the presence of chemical substance/in the absence of chemical substance: 1.1
Yeast gene YJL073W
  The level of expressed mRNA in the presence of chemical substance/The level of expressed mRNA in the absence of chemical substance: 1.0
Yeast gene YJL082W, ratio to control without chemical substance, 2 h culture
  The level of expressed mRNA in the presence of chemical substance/: 0.9
Yeast gene YJL089W
  The level of expressed mRNA in the presence of chemical substance/The level of expressed mRNA in the absence of chemical substance: 1.1
Yeast gene YJL116C
  The level of expressed mRNA in the presence of chemical substance/The level of expressed mRNA in the absence of chemical substance: 1.8
Yeast gene YJL151C, ratio to control without chemical substance, 2 h culture
  The level of expressed mRNA in the presence of chemical substance/: 0.8
Yeast gene YJL152W, ratio to control without chemical substance, 2 h culture
  The level of expressed mRNA in the presence of chemical substance/: 0.7
Yeast gene YJL161W, ratio to control without chemical substance, 2 h culture
  The level of expressed mRNA in the presence of chemical substance/: 1.4
Yeast gene YJL167W
  The level of expressed mRNA in the presence of chemical substance/in the absence of chemical substance: 1.5
Yeast gene YJL171C, ratio to control without chemical substance, 2 h culture
  The level of expressed mRNA in the presence of chemical substance/: 0.9
Yeast gene YJL216C
  The level of expressed mRNA in the presence of chemical substance/in the absence of chemical substance: 1.9
Yeast gene YJR004C
  The level of expressed mRNA in the presence of chemical substance/The level of expressed mRNA in the absence of chemical substance: 0.4
Yeast gene YJR008W, ratio to control without chemical substance, 2 h culture
  The level of expressed mRNA in the presence of chemical substance/: 1.1
Yeast gene YJR054W, ratio to control without chemical
  The level of expressed mRNA in the presence of chemical substance/: 1.6
Yeast gene YJR086W
  The level of expressed mRNA in the presence of chemical substance/The level of expressed mRNA in the absence of chemical substance: 1.1
Yeast gene YKL008C
  The level of expressed mRNA in the presence of chemical substance/The level of expressed mRNA in the absence of chemical substance: 1.2
Yeast gene YKL013C
  The level of expressed mRNA in the presence of chemical substance/The level of expressed mRNA in the absence of chemical substance: 0.9
Yeast gene YKL039W
  The level of expressed mRNA in the presence of chemical substance/The level of expressed mRNA in the absence of chemical substance: 0.8
Yeast gene YKL041W
  The level of expressed mRNA in the presence of chemical substance/The level of expressed mRNA in the absence of chemical substance: 1.6
Yeast gene YKL071W, ratio to control without chemical substance, 2 h culture
  The level of expressed mRNA in the presence of chemical substance/: 24.7
